Experiments:
[1] = target: T1, D1R (Homo sapiens, UniProt P21728); assay: Binding affinity at dopamine D1R, [3H]SCH23390 radioligand; conditions: for selectivity D1R over D5R: from Ki values
[2] = target: T1, D1R; assay: D1R agonist/antagonist assays measuring cAMP modulation; conditions: agonist mode
[3] = target: D5R (Homo sapiens, UniProt P21918); assay: Binding affinity at dopamine D5R, [3H]SCH23390 radioligand; conditions: from Ki values
Chain of D5R (P21918 whole entry): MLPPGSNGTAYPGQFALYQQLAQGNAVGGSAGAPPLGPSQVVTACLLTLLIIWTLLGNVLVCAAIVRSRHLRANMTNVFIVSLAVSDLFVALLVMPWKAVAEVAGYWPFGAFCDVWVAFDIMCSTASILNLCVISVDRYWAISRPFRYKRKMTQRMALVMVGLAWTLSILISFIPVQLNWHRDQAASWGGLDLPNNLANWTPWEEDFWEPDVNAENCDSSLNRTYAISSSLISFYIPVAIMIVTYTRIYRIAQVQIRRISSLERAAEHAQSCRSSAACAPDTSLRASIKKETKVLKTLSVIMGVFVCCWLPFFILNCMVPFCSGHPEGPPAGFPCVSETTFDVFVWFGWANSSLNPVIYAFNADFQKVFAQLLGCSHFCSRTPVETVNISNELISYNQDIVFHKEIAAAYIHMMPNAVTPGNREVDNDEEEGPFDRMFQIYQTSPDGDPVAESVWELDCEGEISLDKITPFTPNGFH

T1 sequence (P21728 whole entry): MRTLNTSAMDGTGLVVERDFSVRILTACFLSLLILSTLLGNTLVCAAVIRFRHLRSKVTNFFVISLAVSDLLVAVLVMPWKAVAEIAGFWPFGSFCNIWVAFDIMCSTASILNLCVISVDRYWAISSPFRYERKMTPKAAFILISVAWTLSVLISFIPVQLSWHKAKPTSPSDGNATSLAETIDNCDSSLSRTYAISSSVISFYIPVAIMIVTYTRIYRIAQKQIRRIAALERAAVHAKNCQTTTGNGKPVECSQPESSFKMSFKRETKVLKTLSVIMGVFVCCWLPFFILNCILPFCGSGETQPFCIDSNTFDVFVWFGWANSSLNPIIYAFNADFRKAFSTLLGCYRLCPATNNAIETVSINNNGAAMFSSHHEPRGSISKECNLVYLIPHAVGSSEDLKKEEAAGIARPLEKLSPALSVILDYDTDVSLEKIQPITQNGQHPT

selectivity D1R over D5R [1] | Structure (SMILES) | further results
– | Oc1cc2c(cc1O)C(c1ccccc1Br)CNCC2 (stereo not drawn) [Compound 7] | increase in D1R affinity versus C7 methoxy analog 6d ([1]; catechol 7 compared with 6d): roughly 3 fold
– | COc1cc2c(cc1O)C(c1ccccc1Cl)CN(C)CC2 (stereo not drawn) [Compound 10a] | agonist activity [2]: No agonist activity was detected
– | COc1cc2c(cc1O)C(c1c(Cl)cccc1Cl)CNCC2 (stereo not drawn) [Compound 6c] | selectivity D5R over D1R [3]: 3 fold
up to 3 fold | COc1cc2c(cc1O)C(c1ccccc1)CNCC2 (stereo not drawn) [Compound 6a] | –
up to 3 fold | COc1cc2c(cc1O)C(c1ccccc1Br)CNCC2 (stereo not drawn) [Compound 6d] | –
up to 3 fold | COc1cc2c(cc1O)C(c1ccccc1Cl)CNCC2 (stereo not drawn) [Compound 6b] | –
